Reference: US7560105B1, “Dendritic cells activated in the presence of glucocorticoid hormones are capable of suppressing antigen-specific T cell responses” (Leids Universitair Medisch Centrum, priority 1999, dated 2009)

Assays:
[1] = system: human monocyte-derived DC; assay: DC surface phenotype by flow cytometry after CD40 ligation; type: cell-based; conditions: DEX titration, data not shown
Method: Immature DC were generated from peripheral blood monocyte precursors (PBMC). Human PBMC from healthy donors, isolated through Ficoll-Hypaque density centrifugation were plated at 1.5×10^7 per well in 6-well plates (Costar Corp., Cambridge, Mass.) in RPMI 1640 (Life Technologies, Paisley, Scotland) supplemented with 2 mM glutamine, 100 UI/ml penicillin and 10% FCS. After 2 h at 37° C., the nonadherent cells were removed and the adherent cells were cultured in medium containing 500 U/ml IL-4 (Pepro Tech Inc. Rocky Hill, N.J.) and 800 U/ml GM-CSF (kindly provided by Dr S. Osanto, LUMC, Leiden, NL) for a total of 7 days.
Activation of DC though CD40 was performed with a fusion protein made of the extracellular domain of human CD40L and of the murine CD8a chain (CD 8-CD40L). The CD8-CD40L cDNA described by Garrone et al. (23) was transferred into an eukaryotic expression vector containing the hygromycin resistance gene and used for the generation of stably transfected Chinese Hamster Ovary (CHO) cells. […] DC were incubated at 5×10^5/ml/well in a 24-well plate (Costar Corp., Cambridge, Mass.) and activated in the presence of 1/10 CD8-CD40L supernatant. Cells and supernatants were analyzed after 48 h. […]
Cells were stained on ice with FITC or PE-conjugated mouse monoclonal antibodies (MoAb) for 30 min in PBS 1% FCS and were analyzed on a FACScan® (Becton Dickinson, San Jose, Calif.). […]

[2] = system: human monocyte-derived DC; assay: Cytokine detection by ELISA in DC culture supernatants; type: cell-based; conditions: CD40 triggering of DEX-treated DC vs untreated
Method: Data are representative from 6 independent experiments.
Activation of DC though CD40 was performed with a fusion protein made of the extracellular domain of human CD40L and of the murine CD8a chain (CD 8-CD40L). The CD8-CD40L cDNA described by Garrone et al. (23) was transferred into an eukaryotic expression vector containing the hygromycin resistance gene and used for the generation of stably transfected Chinese Hamster Ovary (CHO) cells. […] DC were incubated at 5×10^5/ml/well in a 24-well plate (Costar Corp., Cambridge, Mass.) and activated in the presence of 1/10 CD8-CD40L supernatant. Cells and supernatants were analyzed after 48 h. Of note, control supernatants obtained from untransfected CHO cells or from CHO cells transfected with the CD8a cDNA lacked DC activating functions and were similar to culture medium.
Culture supernatants were analyzed in serial two-fold dilutions in duplicate. IL-12p70 was detected using a solid phase sandwich ELISA kit (Diaclone Research, Besancon, France) (sensitivity 3 pg/ml). For IL-12p40 and IFN-g detection, capture MoAb and polyclonal biotinylated detection Ab were obtained from Peter van de Meijde (BPRC, Rijswijk, NL) (sensitivity 10 pg/ml). IL-10 was detected using the Pelikine compact human IL-10 ELISA kit (CLB, Amsterdam, NL) (sensitivity 3 pg/ml).

In the case of C[C@@H]1C[C@H]2[C@@H]3CCC4=CC(=O)C=C[C@]4(C)[C@@]3(F)[C@@H](O)C[C@]2(C)[C@@]1(O)C(=O)CO [DEX, dexamethasone], the CD40-mediated phenotypic changes ([1]; 10^-9 M) is reported as “no effect”, the CD40-mediated phenotypic changes ([1]; 10^-10) is reported as “no effect” and the “enhancement of IL-10 production” value [2] is reported as “up to 50 fold”. The “reduction of IL-12p40 production” value [2] was “up to 100 fold”.
